Earlier results on 1 compound are cited in US20100087702A1, “Composition and method to modify sperm fertility and female gender ratio in mammals” (priority 2008, published 2010).

The subject of data set [1] is Hexose Monophosphate Shunt (HMS). The following applies: Tiffen et al., 1991.
Data set [2] has as its system early-staged mouse embryos. The following applies: Williams, 1986.

`CCN(CC)c1cc2c(cc1C)Nc1ccc(N)cc1O2` [BCB, 2-methyl-3-diethylamino-7-amino phenoxazine]: the “increase in oxidation of glucose through the HMS” value in data set [1] is reported as 15 fold. The “toxicity of BCB and its metabolites” value in data set [2] was “relatively non-toxic”.
